The text below walks through data of paper PMC7767506, “Synthesis and Characterization of Store-Operated Calcium Entry Inhibitors Active in the Submicromolar Range” (International Journal of Molecular Sciences, 2020).

The subject of assay [1] is Jurkat cell SOCE. The experiment in a line: Thapsigargin-induced SOCE in Jurkat cells, Indo-1 [Ca2+]cyt measurement. The format is cell-based, human. As to conditions: for Ki: 1 µM thapsigargin 10 min, compound added 30 s prior to 1 mM CaCl2. As to the method: To visualize SOCE, we performed a classical protocol: Jurkat cells in Ca^2+-free HBS medium are stimulated by 1 µM thapsigargin (TG, black arrow, Figure 2A) during 600 s to allow the release of Ca^2+ ions by the ER, and the subsequent opening of the store-operated Ca^2+ channels (SOCC). Addition of 1 mM CaCl2 allowed for a massive entry of Ca^2+ ions through SOCC leading thus to an increase of the cytosolic calcium concentration ([Ca^2+]cyt). To test 2-APB and its analogues, different concentrations of compounds were added 30 s prior to Ca^2+ addition.
[Ca^2+]cyt was recorded by a fluorimetric ratio technique as previously described. Leukocytes were spun and resuspended at a density of 10^6 cells/mL in Hepes buffered saline (HBS; 135 mM NaCl, 5.9 mM KCl, 1.2 mM MgCl2, 11.6 mM Hepes, 11.5 mM glucose adjusted to pH 7.3 with NaOH). Due to the presence of 0.002% Ca^2+ in the NaCl, this HBS medium contained 0.1 mM of Ca^2+. Then, cells were incubated in the dark with 4 μM Indo-1-AM for one hour at room temperature under slow agitation. Cells were then centrifuged and resuspended in HBS medium before measurement. To perform the experiments, 0.5 to 1 × 10^6 cells were suspended in 2 mL HBS in a quartz cuvette and inserted into a spectrofluorophotometer (RF-1501 Shimadzu Corporation, Kyoto, Japan) connected to a PC computer (Dell Computer Corp., Montpellier, France). A temperature of 37°C was maintained by circulating water from a bath. Ultraviolet light of 360 nm was used for excitation of Indo-1, and emissions at 405 and 480 nm were recorded. Background and autofluorescence of the cell suspension were subtracted from the recordings. The maximum Indo-1 fluorescence (Rmax) was obtained by adding 1 µM ionomycin to the cell suspension in the presence of 10 mM extracellular CaCl2. Minimum fluorescence was determined following the depletion of external Ca^2+ with 5 mM EGTA.
To visualize the SOCE, cells were placed into the quartz cuvette and 0.5 EGTA was added just before the beginning of the recordings. To induce the SOCE, the cells were treated with 1 μM thapsigargin (TG) during 10 min in Ca^2+-free HBS to induce Ca^2+ release from the ER and the opening of SOCE channels. Then, 1 mM CaCl2 was added to measure the change in [Ca^2+]cyt subsequently to Ca^2+ influx. In the dose-response experiments, different concentrations of 2-APB and its analogs were added 30 s prior to Ca^2+ readdition.

Assay [2] relates to ER Ca2+ stores of L15 fibroblasts. The experiment in a line: Basal Ca2+ leak from ER stores, unidirectional 45Ca2+ flux in permeabilized L15 fibroblasts. It counts as cell-based. As to the method: (§1) Measurements of SERCA-mediated ^45Ca^2+ store loading and IP3-dependent release from the ER Ca^2+ store were performed on permeabilized cells in unidirectional conditions. As this approach required the use of cells forming strongly adherent monolayers, we used L15 fibroblasts stably overexpressing IP3R1, similarly to our previous work.
The L15 fibroblasts stably overexpressing IP3R1 were seeded in gelatin-coated 12-well plates (Greiner, Frickenhausen, Germany) at a density of 60,000 cells per well. Unidirectional ^45Ca^2+ flux experiments on confluent cell monolayers were performed at 30 °C after membrane permeabilization with saponin (40 µg/mL), exactly as previously described. After permeabilization, the non-mitochondrial Ca^2+ stores were loaded for 45 min in 120 mM KCl, 30 mM imidazole–HCl (pH 6.8), 5 mM MgCl2, 5 mM ATP, 0.44 mM EGTA, 10 mM NaN3, and 150 nM free ^45Ca^2+ (28 µCi mL^−1). Subsequently, efflux was initiated by incubation in efflux medium (120 mM KCl, 1 mM EGTA, 10 µM TG and 30 mM imidazole–HCl pH 6.8). […] The exact amount of Ca^2+ at each time point is calculated by summing in retrograde order the amount of radioactivity remaining in the cells at the end of the efflux and the radioactivity collected during the successive time intervals. […] These various parameters were measured both in control conditions or in the presence of various 2-APB analogs as indicated. […]

The target of another assay is SERCA (Mus musculus, UniProt O55143). In words: SERCA-mediated 45Ca2+ store loading in permeabilized L15 fibroblasts. It counts as cell-based. Conditions: 100 µM; read-out: change of SERCA activity. As for the experimental part: as §1
Sequence of SERCA (O55143 whole entry): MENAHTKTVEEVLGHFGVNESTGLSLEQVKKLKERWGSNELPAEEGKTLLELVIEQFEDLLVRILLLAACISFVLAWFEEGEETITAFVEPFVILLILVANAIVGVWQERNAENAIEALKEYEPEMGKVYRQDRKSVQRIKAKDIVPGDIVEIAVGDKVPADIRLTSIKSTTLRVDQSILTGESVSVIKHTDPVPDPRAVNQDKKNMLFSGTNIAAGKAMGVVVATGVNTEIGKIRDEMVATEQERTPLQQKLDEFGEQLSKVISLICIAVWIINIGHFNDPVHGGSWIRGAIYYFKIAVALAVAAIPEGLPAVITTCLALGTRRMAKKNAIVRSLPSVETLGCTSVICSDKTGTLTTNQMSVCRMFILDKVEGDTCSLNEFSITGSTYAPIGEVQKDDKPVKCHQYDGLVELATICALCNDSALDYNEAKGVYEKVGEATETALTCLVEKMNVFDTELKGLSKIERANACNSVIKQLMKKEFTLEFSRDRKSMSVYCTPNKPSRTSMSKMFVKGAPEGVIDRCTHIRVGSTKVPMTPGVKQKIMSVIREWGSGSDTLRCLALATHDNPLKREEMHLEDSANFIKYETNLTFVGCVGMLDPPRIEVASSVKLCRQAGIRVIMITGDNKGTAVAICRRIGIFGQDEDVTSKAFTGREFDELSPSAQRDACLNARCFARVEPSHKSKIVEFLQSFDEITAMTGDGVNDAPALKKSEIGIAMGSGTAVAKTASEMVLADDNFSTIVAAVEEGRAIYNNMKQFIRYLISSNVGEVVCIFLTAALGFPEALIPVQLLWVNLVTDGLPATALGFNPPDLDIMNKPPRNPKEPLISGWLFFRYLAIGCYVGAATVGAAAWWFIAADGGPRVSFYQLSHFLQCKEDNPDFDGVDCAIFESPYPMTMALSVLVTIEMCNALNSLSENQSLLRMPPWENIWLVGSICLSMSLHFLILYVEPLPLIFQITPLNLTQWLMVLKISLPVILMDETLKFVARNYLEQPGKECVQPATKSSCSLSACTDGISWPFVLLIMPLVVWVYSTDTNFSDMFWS
(§2) The L15 fibroblasts stably overexpressing IP3R1 were seeded in gelatin-coated 12-well plates (Greiner, Frickenhausen, Germany) at a density of 60,000 cells per well. Unidirectional ^45Ca^2+ flux experiments on confluent cell monolayers were performed at 30 °C after membrane permeabilization with saponin (40 µg/mL), exactly as previously described. After permeabilization, the non-mitochondrial Ca^2+ stores were loaded for 45 min in 120 mM KCl, 30 mM imidazole–HCl (pH 6.8), 5 mM MgCl2, 5 mM ATP, 0.44 mM EGTA, 10 mM NaN3, and 150 nM free ^45Ca^2+ (28 µCi mL^−1). Subsequently, efflux was initiated by incubation in efflux medium (120 mM KCl, 1 mM EGTA, 10 µM TG and 30 mM imidazole–HCl pH 6.8). The latter medium was replaced every two minutes for 18 minutes. The exact amount of Ca^2+ at each time point is calculated by summing in retrograde order the amount of radioactivity remaining in the cells at the end of the efflux and the radioactivity collected during the successive time intervals. This allows to calculate the steady-state content of the ER Ca^2+ stores (indicative for the SERCA activity, after subtraction of the loading achieved in the presence of 2 µM TG) the basal leak rate of Ca^2+ out of the stores and the IP3-induced Ca^2+ release after addition of IP3 (0.7 µM). These various parameters were measured both in control conditions or in the presence of various 2-APB analogs as indicated. To assess the effect of the 2-APB analogs on the SERCA-mediated loading of the ER Ca^2+ stores, the analogs were added during the ^45Ca^2+-loading phase as described previously. Obviously, compounds that strongly stimulated the basal Ca^2+ leak out of the stores (as P8) could not be investigated for their effect on SERCA activity (as Ca^2+ loading was already compromised by the increased leak) or on IP3-induced Ca^2+ release (as the decreased luminal Ca^2+ level impacted both the driving force for Ca^2+ release and the sensitivity of the IP3R).

A further assay deals with T1, IP3R1 (Mus musculus, UniProt P11881).
T1 construct: expressed in transfected cells; host or cells: L15 fibroblast cell line (gift of Katsuhiko Mikoshiba), saponin-permeabilized
T1 sequence (P11881 whole entry): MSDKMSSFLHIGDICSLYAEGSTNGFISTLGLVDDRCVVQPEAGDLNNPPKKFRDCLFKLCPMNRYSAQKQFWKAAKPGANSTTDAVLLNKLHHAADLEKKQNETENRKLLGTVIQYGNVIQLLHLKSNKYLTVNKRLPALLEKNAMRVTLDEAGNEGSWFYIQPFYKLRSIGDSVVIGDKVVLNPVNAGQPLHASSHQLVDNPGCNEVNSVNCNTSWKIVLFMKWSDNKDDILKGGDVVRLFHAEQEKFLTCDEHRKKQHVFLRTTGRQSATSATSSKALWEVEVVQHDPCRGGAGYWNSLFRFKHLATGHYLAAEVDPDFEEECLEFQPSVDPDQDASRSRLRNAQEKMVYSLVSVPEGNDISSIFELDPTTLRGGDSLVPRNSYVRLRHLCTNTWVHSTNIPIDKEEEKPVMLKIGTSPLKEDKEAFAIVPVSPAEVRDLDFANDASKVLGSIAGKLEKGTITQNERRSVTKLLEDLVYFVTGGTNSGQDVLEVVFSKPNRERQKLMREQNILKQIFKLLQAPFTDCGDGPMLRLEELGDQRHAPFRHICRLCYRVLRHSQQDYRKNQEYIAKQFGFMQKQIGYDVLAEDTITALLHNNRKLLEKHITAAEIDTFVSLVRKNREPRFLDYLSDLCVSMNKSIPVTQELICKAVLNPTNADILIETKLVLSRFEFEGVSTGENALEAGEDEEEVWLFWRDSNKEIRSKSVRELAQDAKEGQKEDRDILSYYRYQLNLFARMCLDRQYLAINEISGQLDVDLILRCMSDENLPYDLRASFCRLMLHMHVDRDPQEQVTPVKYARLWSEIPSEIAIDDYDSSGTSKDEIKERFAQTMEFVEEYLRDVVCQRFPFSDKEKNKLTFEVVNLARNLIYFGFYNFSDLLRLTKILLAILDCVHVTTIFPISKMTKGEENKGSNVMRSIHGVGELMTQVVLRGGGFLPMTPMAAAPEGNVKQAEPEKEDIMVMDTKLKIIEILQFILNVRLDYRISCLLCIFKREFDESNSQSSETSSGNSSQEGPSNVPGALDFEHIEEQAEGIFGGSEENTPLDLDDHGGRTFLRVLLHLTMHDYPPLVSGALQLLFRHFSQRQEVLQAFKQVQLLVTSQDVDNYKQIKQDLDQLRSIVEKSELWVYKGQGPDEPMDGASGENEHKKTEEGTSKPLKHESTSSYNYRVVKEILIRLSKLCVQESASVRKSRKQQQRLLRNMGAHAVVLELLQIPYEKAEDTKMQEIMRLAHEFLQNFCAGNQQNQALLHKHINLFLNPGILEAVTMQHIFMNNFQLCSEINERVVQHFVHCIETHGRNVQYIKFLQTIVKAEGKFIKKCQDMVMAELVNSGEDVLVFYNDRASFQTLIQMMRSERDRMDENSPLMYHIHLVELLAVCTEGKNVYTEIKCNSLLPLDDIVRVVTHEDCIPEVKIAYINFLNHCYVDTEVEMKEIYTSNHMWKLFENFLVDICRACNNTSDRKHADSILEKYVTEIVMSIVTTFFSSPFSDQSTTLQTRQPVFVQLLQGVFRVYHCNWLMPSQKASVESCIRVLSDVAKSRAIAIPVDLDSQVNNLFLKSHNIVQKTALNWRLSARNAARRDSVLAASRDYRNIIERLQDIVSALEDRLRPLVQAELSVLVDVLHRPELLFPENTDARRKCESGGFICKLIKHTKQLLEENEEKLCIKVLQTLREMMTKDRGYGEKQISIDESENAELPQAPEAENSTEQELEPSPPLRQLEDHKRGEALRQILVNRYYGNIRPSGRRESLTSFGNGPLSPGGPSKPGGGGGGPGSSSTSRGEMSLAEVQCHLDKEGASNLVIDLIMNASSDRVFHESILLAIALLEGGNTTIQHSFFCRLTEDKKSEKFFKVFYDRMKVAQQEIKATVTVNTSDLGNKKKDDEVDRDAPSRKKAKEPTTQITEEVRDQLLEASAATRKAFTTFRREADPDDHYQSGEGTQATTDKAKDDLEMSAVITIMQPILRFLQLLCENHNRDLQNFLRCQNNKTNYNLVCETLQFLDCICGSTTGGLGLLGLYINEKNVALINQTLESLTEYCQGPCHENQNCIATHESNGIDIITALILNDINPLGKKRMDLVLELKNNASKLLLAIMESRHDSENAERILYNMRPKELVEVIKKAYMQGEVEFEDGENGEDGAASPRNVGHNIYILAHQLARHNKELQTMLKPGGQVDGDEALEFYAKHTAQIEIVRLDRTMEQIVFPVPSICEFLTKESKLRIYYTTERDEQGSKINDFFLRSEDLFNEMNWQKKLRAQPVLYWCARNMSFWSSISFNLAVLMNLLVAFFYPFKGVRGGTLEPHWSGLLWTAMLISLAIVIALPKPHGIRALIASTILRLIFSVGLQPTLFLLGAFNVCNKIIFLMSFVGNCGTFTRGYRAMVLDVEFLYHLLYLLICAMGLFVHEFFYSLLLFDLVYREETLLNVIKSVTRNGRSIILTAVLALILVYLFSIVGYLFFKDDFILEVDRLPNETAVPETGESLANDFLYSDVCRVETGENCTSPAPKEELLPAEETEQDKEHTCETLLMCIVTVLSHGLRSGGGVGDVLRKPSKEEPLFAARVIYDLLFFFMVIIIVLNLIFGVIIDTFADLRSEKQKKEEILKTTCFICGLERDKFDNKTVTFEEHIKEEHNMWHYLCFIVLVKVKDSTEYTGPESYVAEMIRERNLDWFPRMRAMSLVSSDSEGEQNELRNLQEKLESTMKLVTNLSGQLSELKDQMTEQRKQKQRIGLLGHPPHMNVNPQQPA
In words: IP3-induced Ca2+ release (IICR) in permeabilized L15 fibroblasts overexpressing IP3R1. It counts as cell-based. As to conditions: permeabilized L15 fibroblasts. As for the experimental part: as §1
as §2, with “Obviously, compounds that strongly stimulated the basal Ca^2+ leak out of the stores (as P8) could not be investigated for their effect on SERCA activity (as Ca^2+ loading was already compromised by the increased leak) or on IP3-induced Ca^2+ release (as the decreased luminal Ca^2+ level impacted both the driving force for Ca^2+ release and the sensitivity of the IP3R).” left out

In assay [3] the test system is Jurkat cell SOCE. As to conditions: leukocyte SOCE; cited from earlier work.
[4] abbreviates: Jurkat cells, read-out: Ki (µM), inhibition constant on SOCE.
[5] abbreviates: Jurkat cells, read-out: Ki (nM), inhibition constant on SOCE.

Where two headings read alike, the source gives them in different places.

As for “2-(((4-methoxyphenyl)(p-tolyl)boryl)oxy)ethanamine [P16]”, the Ki in the assay with Jurkat cell SOCE [1] (setting [4]) was determined as 3.1 ± 0.6 µM.

“2-((bis(3,4-dimethylphenyl)boryl)oxy)ethanamine [P7]”: in the assay with Jurkat cell SOCE [1] (setting [5]), the Ki was 0.751 ± 0.097 µM.

Take “2-((bis(3,5-dimethylphenyl)boryl)oxy)ethanamine [P10]”: the “concentration of complete/full SOCE inhibition” value in the assay with Jurkat cell SOCE [1] (Jurkat cells) stood at 3 µM. Further, the Ki in the assay with Jurkat cell SOCE [1] (setting [5]) was 0.484 ± 0.116 µM; in the assay on Jurkat cell SOCE [1] (setting [4]) it was ~0.5 µM.

For the compound “2-((bis(3-methoxyphenyl)boryl)oxy)ethanamine [P4]”, the “maximal inhibition of SOCE” value in the assay on Jurkat cell SOCE [1] (Jurkat cells) is given as “≈ 80%”. Moreover, the Ki in the assay on Jurkat cell SOCE [1] (setting [4]) is 75 ± 21 µM.

Regarding “2-((bis(4-(tert-butyl)phenyl)boryl)oxy)ethanamine [P8]”, the “Ca2+ leak from the ER by an IP3-independent pathway” value in assay [2] is given as “strong Ca^2+ leak”. In addition, the Ki with Jurkat cell SOCE [1] (setting [5]) was found to be 0.35 ± 0.04 µM.

Take “2-((bis(4-methoxyphenyl)boryl)oxy)ethanamine [P2]”: the Ki in the assay with Jurkat cell SOCE [1] (setting [4]) is 3.5 ± 0.65 µM.

Regarding “2-((di(naphthalen-2-yl)boryl)oxy)ethanamine [P6]”, in the assay with Jurkat cell SOCE [1] (setting [5]), the Ki came to 0.275 ± 0.017 µM.

Regarding 2-((di-m-tolylboryl)oxy)ethanamine [P5], the Ki in the assay with Jurkat cell SOCE [1] (setting [4]) was determined as 2.1 ± 0.6 µM.

2-((di-p-tolylboryl)oxy)ethanamine [P3]: in the assay on Jurkat cell SOCE [1] (setting [4]), the Ki stood at 3.5 ± 0.6 µM.

Consider `CCCCc1ccc([B-]2(c3ccc(CCCC)cc3)[NH2+]CCO2)cc1` [P9], for which the Ki in the assay with Jurkat cell SOCE [1] (setting [5]) is 0.641 ± 0.103 µM. For the same compound, the inhibition at 100 µM at SERCA was 52 ± 3%. Also, the “inhibition of IP3R activity” value on IP3R1 is recorded as “did not significantly inhibit”.

As to `NCCOB(c1ccc2sccc2c1)c1ccc2sccc2c1` [P12, 2-(dibenzo[b]thiophen-5-ylboryloxy)ethanamine], the Ki with Jurkat cell SOCE [1] (setting [5]) was determined as 0.374 ± 0.096 µM.

On to `Clc1ccc([B-]2(c3ccc(Cl)cc3)[NH2+]CCO2)cc1` [P13], for which, in the assay on Jurkat cell SOCE [1] (setting [4]), the Ki came to 1.8 ± 0.1 µM.

Consider `Fc1ccc([B-]2(c3ccc(F)cc3)[NH2+]CCO2)cc1` [P14], for which, in the assay with Jurkat cell SOCE [1] (setting [4]), the inhibition constant Ki is 5.4 ± 0.3 µM.

In the case of `Cc1ccc([B-]2(c3ccc(C)c(Cl)c3)[NH2+]CCO2)cc1Cl` [P15], the Ki with Jurkat cell SOCE [1] (setting [5]) is 0.294 ± 0.074 µM; in the assay on Jurkat cell SOCE [1] (setting [4]) it was ~0.3 µM.

As to `CC1(C)c2ccccc2-c2ccc([B-]3(c4ccc5c(c4)C(C)(C)c4ccccc4-5)[NH2+]CCO3)cc21` [P17], the Ki in the assay with Jurkat cell SOCE [1] (setting [4]) is > 100 µM. Moreover, in the assay with Jurkat cell SOCE [1] (concentrations >3 µM, higher concentrations disrupted the fluorescence), the “effect on SOCE amplitude” value is on record as “no effect”.

Consider “((diphenylboryl)oxy)ethanamine [2-APB, reference compound]”, for which the “concentration of full SOCE block” value in the assay with Jurkat cell SOCE [3] is 20 to 30 µM. The “SOCE potentiation, % of control [Ca2+]cyt increase” value with Jurkat cell SOCE [1] (5 µM, Jurkat cells) was > 200%. Moreover, the SOCE inhibition entry in the assay with Jurkat cell SOCE [1] (50 µM, Jurkat cells) is recorded as “almost total inhibition”.
